Results from US20230203059A1, “MACROCYCLIC JAK INHIBITOR AND USES THEREOF” (Biopolar Hongye (Guangdong) Pharmaceutical Co. Ltd., priority 2020, published 2023).
pIC50: −log10 of the molar value.

Tests used:
Assay type in all cases: biochemical
[1] = molecular target: JAK1 (Homo sapiens, UniProt P23458); assay: JAK kinase activity, homogeneous time-resolved fluorescence (JAK1 reaction system); conditions: ATP 2 μM, JAK1 protein 0.2 ng/μL; read-out: JAK 1 activity
How it was run: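 HTRF assay: JAK1 (0.2 ng/μL) with 2 μM ATP and substrate in 50 mM Hepes pH 7.0, 5 mM MgCl2, 1 mM DTT, 1 h. Phospho-substrate antibody/XL-615 detection with EDTA; 665/615 nm ratio, excitation 320 nm. IC50 from Hill-type fit against no-enzyme and no-compound controls.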

[2] = molecular target: JAK2 (Homo sapiens, UniProt O60674); assay: JAK kinase activity, homogeneous time-resolved fluorescence (JAK2 reaction system); conditions: ATP 2 μM, JAK2 protein 0.01 ng/μL
How it was run: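 IC50 derived by Hill-equation fit of the 665/615 nm time-resolved fluorescence ratio after EDTA-containing detection mix with anti-phosphosubstrate antibody. Preceding 1 h reaction contained 2 μM ATP, 0.01 ng/μL JAK2, substrate, 50 mM Hepes pH 7.0, 5 mM MgCl2, 1 mM DTT.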

[3] = molecular target: T1, JAK3 (Homo sapiens, UniProt P52333); assay: JAK kinase activity, homogeneous time-resolved fluorescence (JAK3 reaction system); conditions: ATP 2 μM, JAK3 protein 0.04 ng/μL; read-out: JAK 3 activity
T1 sequence (P52333 1-1124): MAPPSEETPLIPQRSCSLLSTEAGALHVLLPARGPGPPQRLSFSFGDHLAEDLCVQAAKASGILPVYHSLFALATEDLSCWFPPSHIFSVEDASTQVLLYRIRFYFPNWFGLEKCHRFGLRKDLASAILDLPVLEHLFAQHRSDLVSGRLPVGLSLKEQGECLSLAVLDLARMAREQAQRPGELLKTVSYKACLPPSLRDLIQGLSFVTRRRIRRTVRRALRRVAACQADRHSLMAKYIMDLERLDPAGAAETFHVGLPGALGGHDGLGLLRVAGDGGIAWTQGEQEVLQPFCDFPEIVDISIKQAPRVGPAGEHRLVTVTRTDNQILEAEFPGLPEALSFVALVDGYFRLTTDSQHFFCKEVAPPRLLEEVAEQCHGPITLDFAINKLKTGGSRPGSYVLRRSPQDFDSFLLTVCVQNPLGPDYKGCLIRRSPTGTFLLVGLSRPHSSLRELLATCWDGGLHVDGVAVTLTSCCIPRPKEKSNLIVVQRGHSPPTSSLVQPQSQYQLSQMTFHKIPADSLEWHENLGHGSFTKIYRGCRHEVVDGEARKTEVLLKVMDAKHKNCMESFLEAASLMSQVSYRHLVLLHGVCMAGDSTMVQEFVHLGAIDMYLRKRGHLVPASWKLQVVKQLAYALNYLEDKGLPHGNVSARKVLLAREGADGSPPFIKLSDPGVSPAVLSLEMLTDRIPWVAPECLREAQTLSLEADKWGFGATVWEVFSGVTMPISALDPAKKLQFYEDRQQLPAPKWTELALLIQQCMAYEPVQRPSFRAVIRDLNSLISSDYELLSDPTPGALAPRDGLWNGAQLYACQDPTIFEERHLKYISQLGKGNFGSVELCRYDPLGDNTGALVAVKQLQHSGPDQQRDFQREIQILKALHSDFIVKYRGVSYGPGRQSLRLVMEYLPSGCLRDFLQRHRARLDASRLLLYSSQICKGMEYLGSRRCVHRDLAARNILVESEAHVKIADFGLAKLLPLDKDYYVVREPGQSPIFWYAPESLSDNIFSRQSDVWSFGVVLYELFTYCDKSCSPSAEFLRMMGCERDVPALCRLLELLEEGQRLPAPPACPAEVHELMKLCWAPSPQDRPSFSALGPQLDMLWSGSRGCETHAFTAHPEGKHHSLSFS

[4] = molecular target: TYK2 (Homo sapiens, UniProt P29597); assay: JAK kinase activity, homogeneous time-resolved fluorescence (TYK2 reaction system); conditions: ATP 2 μM, TYK2 protein 0.2 ng/μL; read-out: TYK 2 activity
How it was run: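 Activity read as the 665 nm/615 nm ratio after adding EDTA-containing detection mix with anti-phospho-substrate antibody and XL-615. Beforehand, 0.2 ng/μL TYK2, 2 μM ATP, substrate and compound reacted 1 h in pH 7.0 Hepes buffer with MgCl2 and DTT. IC50 fitted with Hill-slope equation.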

JAK2, sequence (O60674 whole entry): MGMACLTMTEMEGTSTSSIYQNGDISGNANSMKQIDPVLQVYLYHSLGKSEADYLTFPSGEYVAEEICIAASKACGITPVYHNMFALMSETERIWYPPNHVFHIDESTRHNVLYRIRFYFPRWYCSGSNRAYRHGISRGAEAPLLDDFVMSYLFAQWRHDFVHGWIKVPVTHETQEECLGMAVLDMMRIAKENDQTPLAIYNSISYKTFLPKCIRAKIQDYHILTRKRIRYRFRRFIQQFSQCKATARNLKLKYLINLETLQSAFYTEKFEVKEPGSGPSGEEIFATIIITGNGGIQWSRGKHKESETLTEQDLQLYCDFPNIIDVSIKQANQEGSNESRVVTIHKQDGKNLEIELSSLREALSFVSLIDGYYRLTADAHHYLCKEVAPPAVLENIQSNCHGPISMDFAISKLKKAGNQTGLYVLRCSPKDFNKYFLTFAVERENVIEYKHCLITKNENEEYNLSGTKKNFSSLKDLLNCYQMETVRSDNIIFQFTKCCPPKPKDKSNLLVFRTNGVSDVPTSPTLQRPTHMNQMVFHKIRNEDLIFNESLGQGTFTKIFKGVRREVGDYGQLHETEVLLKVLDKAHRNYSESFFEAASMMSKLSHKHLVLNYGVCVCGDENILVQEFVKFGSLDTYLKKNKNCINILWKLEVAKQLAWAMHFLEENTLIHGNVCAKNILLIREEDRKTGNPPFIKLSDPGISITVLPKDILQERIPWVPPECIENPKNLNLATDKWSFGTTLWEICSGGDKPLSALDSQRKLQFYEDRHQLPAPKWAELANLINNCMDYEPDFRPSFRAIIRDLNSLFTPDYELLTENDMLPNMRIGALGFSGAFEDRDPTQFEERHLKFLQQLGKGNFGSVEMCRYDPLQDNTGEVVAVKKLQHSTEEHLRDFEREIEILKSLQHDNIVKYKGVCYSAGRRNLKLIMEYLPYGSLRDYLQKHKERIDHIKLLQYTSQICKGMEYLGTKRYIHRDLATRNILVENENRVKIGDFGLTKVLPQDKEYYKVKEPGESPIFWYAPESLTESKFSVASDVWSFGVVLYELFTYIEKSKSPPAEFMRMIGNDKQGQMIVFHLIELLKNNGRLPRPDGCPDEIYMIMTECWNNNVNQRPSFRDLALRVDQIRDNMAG
TYK2, sequence (P29597 whole entry): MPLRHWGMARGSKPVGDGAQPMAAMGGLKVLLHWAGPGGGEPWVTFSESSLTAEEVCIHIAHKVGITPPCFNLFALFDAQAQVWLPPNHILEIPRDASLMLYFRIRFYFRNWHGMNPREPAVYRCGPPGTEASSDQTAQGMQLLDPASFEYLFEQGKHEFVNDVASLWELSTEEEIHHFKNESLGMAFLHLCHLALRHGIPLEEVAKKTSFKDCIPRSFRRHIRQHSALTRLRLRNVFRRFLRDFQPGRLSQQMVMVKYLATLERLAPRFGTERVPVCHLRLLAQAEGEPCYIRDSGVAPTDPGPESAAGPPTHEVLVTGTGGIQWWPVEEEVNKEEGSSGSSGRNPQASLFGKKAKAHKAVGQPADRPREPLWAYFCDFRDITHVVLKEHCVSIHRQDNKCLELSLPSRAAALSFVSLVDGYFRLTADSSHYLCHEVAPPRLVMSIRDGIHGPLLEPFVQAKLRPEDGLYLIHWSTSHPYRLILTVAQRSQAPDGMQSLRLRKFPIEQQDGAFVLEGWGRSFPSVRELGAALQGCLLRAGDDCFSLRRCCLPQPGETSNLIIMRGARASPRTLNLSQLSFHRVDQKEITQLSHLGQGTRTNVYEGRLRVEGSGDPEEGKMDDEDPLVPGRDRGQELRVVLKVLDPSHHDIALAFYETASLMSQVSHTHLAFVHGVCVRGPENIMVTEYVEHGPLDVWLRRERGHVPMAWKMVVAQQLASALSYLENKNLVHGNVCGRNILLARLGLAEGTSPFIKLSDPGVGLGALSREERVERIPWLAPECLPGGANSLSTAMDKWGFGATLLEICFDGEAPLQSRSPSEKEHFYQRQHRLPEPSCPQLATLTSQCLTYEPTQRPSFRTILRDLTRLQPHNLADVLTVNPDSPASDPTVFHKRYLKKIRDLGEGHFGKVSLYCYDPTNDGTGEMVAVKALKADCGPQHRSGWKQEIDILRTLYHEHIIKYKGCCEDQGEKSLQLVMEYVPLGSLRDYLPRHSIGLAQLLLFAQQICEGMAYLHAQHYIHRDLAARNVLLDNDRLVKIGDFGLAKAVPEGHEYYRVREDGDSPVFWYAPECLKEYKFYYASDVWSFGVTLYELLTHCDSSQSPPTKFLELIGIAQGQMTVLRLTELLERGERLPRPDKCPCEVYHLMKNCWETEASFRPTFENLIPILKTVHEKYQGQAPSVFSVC
JAK1, sequence (P23458 whole entry): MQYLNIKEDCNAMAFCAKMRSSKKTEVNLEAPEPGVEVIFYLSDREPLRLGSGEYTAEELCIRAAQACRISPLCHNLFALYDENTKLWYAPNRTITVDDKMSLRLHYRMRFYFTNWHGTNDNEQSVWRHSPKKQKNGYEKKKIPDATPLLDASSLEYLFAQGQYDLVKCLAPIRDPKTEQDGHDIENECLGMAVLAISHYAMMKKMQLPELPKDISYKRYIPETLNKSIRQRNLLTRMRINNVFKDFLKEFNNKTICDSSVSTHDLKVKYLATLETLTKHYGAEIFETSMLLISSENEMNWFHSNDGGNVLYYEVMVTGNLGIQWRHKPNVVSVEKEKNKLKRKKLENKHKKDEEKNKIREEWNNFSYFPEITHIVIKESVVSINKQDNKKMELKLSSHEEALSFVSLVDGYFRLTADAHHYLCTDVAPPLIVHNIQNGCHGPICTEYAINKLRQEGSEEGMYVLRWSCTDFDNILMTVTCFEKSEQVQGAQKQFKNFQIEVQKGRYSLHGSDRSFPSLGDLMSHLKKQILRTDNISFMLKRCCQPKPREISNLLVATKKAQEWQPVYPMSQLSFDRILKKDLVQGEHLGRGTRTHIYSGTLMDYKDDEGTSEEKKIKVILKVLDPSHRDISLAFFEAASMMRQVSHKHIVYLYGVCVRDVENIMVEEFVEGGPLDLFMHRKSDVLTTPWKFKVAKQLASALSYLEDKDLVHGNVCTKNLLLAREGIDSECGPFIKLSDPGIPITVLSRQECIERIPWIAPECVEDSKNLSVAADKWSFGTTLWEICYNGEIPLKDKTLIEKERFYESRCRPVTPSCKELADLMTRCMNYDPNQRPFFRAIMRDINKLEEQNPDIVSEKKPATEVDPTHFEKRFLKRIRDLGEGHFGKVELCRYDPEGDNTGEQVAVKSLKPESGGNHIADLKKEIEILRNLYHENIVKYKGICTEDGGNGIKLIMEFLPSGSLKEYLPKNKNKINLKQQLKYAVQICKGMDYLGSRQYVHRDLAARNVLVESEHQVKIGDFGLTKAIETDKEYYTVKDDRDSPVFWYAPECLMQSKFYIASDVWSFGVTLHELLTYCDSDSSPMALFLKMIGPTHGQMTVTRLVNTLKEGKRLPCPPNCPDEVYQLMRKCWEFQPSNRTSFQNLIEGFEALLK

Row | Structure (SMILES) | pIC50 [1] | pIC50 [2] | pIC50 [3] | pIC50 [4]
1 | O=C1Nc2ccc(cc2)OCc2cc(ccc2F)Nc2nccc(n2)-c2ccc1cc2O [Example 216, 4^4-fluoro-1^2-hydroxy-6-oxa-3,8-dia-za-2(4,2)-pyrimidina-1,7(1,4),4(1,3)-tribenzenacyclononaphane-9-one] | 6.00 to 7.00 | 6.00 to 7.00 | 7.00 to 7.96 | 5.00 to 6.00
2 | Nc1cc2ccc1-c1ccnc(n1)Nc1ccc(OCC3COC3)c(c1)COCCCCNC2=O [Example 164, 1^2-amino-4^4-(oxetan-3-ylmethoxy)-6-oxa-3-diaza-2(4,2)-pyrimidina-1(1,4),4(1,3)-dibenzenacyclo-dodecaphan-12-one] | 5.00 to 6.00 | 6.00 to 7.00 | 7.00 to 7.96 | 5.00 to 6.00
3 | O=C1NCCCCOCc2cccc(c2)Nc2nccc(n2)-c2ccc1cc2[N+](=O)[O-] [Example 53, 1^2-nitro-6-oxa-3,11-diaza-2(4,2)-py-rimidina-1(1,4),4(1,3)-dibenzenacyclo-dodecaphan-12-one] | 5.00 to 6.00 | < 5.00 | 5.00 to 6.00 | < 5.00
4 | CC1CCOCc2cc(ccc2OC2CC2)Nc2nccc(n2)-c2ccc(cc2[N+](=O)[O-])C(=O)NC1 (stereo not shown) [Example 158, 4^4-cyclopropoxy-9-methyl-1^2-nitro-6-oxa-3,11-diaza-2(4,2)-pyrimi-dina-1(1,4),4(1,3)-dibenzenacyclo-dodecaphan-12-one] | 5.00 to 6.00 | < 5.00 | 6.00 to 7.00 | < 5.00
5 | O=C1NCCCCOCc2cc(ccc2N2CCOCC2)Nc2nccc(n2)-c2ccc1cc2[N+](=O)[O-] [Example 24, 1^2-nitro-4^4-morpholin-6-oxa-3,11-di-aza-2(4,2)-pyrimidina-1(1,4),4(1,3)-dibenzenacyclododecaphan-12-one] | 5.00 to 6.00 | 5.00 to 6.00 | 6.00 to 7.00 | 5.00 to 6.00
6 | CC(C)Oc1ccc2cc1COCCCCNC(=O)c1ccc(c([N+](=O)[O-])c1)-c1ccnc(n1)N2 [Example 64, 4^4-isopropoxy-1^2-nitro-6-oxa-3,11-diaza-2(4,2)-pyrimidina-1(1,4),4(1,3)-dibenzenacyclododecaphan-12-one] | 5.00 to 6.00 | 6.00 to 7.00 | 6.00 to 7.00 | < 5.00
7 | Nc1cc2ccc1-c1ccnc(n1)Nc1ccc(OCC3CCOC3)c(c1)COc1ccc(cc1)NC2=O (stereo not shown) [Example 211, 1^2-amino-4^4-((tetrahydrofuran-3-yl)methoxy)-6-oxa-3,8-diaza-2(4,2)-py-rimidina-1,7(1,4),4(1,3)-tribenzena-cyclononaphane-9-one] | 6.00 to 7.00 | 6.00 to 7.00 | 7.00 to 7.96 | 5.00 to 6.00
8 | CC1CCOCc2cc(ccc2OC(C)C)Nc2nccc(n2)-c2ccc(cc2N)C(=O)NC1 (stereo not shown) [Example 178, 1^2-amino-4^4-isopropoxy-9-methyl-6-oxa-3,11-diaza-2(4,2)-pyrimidin-a-1(1,4)4(1,3)-dibenzenacyclododeca-phan-12-one] | 6.00 to 7.00 | 7.00 to 7.96 | > 8.00 | 6.00 to 7.00
9 | CC1CCNC(=O)c2ccc(c(N)c2)-c2ccnc(n2)Nc2ccc(OCC3CCOC3)c(c2)COC1 (stereo not shown) [Example 136, 1^2-amino-8-methyl-4^4-((tetrahydro-furan-3-yl)methoxy)-6-oxa-3,11-diaza-2(4,2)-pyrimidina-1(1,4),4(1,3)-dibenzenacyclododecaphan-12-one] | 5.00 to 6.00 | 6.00 to 7.00 | > 8.00 | 5.00 to 6.00
10 | Cc1cc2ccc1-c1ccnc(n1)Nc1ccc(N3CCCCC3)c(c1)COCCCCNC2=O [Example 42, 1^2-methyl-4^4-(piperidin-1-)-6-oxa-3,11-diaza-2(4,2)-pyrimidina-1(1,4),4(1,3)-dibenzenacyclododecaphan-12-one] | 5.00 to 6.00 | 6.00 to 7.00 | 7.00 to 7.96 | 6.00 to 7.00
11 | O=C1Nc2ccc(cc2)OCc2cc(ccc2OC2CC2)Nc2nccc(n2)-c2ccc1cc2O [Example 217, 4^4-cyclopropoxy-1^2-hydroxy-6-oxa-3,8-diaza-2(4,2)-pyrimidina-1,7(1,4),4(1,3)-tribenzenacyclononaphane-9-one] | 6.00 to 7.00 | 6.00 to 7.00 | 7.00 to 7.96 | 5.00 to 6.00
12 | Nc1cc2ccc1-c1ccnc(n1)Nc1ccc(F)c(c1)COCCCCNC2=O [Example 69, 1^2-amino-4^4-fluoro-6-oxa-3,11-diaza-2(4,2)-pyrimidina-1(1,4),4(1,3)-di-benzenacyclododecaphan-12-one] | 5.00 to 6.00 | 6.00 to 7.00 | 7.00 to 7.96 | 5.00 to 6.00
13 | Cc1cc2ccc1-c1ccnc(n1)Nc1ccc(N3CCOCC3)c(c1)COCCCCNC2=O [Example 23, 1^2-methyl-4^4-morpholin-6-oxa-3,11-diaza-2(4,2)-pyrimidina-1(1,4),4(1,3)-dibenzenacyclododecaphan-12-one] | 5.00 to 6.00 | 6.00 to 7.00 | 7.00 to 7.96 | 5.00 to 6.00
14 | CN(C)C(=O)C(C)(C)Oc1ccc2cc1COCCCCNC(=O)c1ccc(c(N)c1)-c1ccnc(n1)N2 [Example 179, 2-((1^2-amino-12-oxo-6-oxa-3,11-di-aza-2(4,2)-pyrimidina-1(1,4),4(1,3)-dibenzenacyclododecaphan-4^4-yl)oxy)-N,N-trimethylpropoiona-mide] | 5.00 to 6.00 | 5.00 to 6.00 | 6.00 to 7.00 | < 5.00
15 | Nc1cc2ccc1-c1ccnc(n1)Nc1cc(cc(N3CCSCC3)c1)COCCCCNC2=O [Example 77, 1^2-amino-4^5-thiomorpholin-6-oxa-3,11-diaza-2(4,2)-pyrimidina-1(1,4),4(1,3)-dibenzenacyclododecaphan-12-one] | 6.00 to 7.00 | 7.00 to 7.96 | 7.00 to 7.96 | 6.00 to 7.00
16 | Cc1cc2ccc1-c1nc(ncc1C)Nc1ccc(Cl)c(c1)COCCCCNC2=O [Example 35, 1^2,2^5-dimethyl-4^4-chloro-6-oxa-3,11-diaza-2(4,2)-pyrimidina-1(1,4),4(1,3)-dibenzenacyclododecaphan-12-one] | < 5.00 | < 5.00 | 5.00 to 6.00 | < 5.00
17 | CC1CCOCc2cc(ccc2OCC2CCOC2)Nc2nccc(n2)-c2ccc(cc2[N+](=O)[O-])C(=O)NC1 (stereo not shown) [Example 166, 9-methyl-1^2-nitro-4^4-((tetrahydro-furan-3-yl)methoxy)-6-oxa-3,11-di-aza-2(4,2)-pyrimidina-1(1,4),4(1,3)-dibenzenacyclododecaphan-12-one] | 5.00 to 6.00 | 5.00 to 6.00 | 6.00 to 7.00 | < 5.00
18 | O=C1NCCCCOCc2cc(ccc2N2CCOCC2)Nc2nccc(n2)-c2ccc1c(F)c2 [Example 10, 1^3-fluoro-4^4-morpholin-6-oxa-3,11-diaza-2(4,2)-pyrimidina-1(1,4),4(1,3)-dibenzenacyclododecaphan-12-one] | 7.00 to 7.96 | > 8.00 | > 8.00 | 7.00 to 7.96
19 | Nc1cc2ccc1-c1ccnc(n1)Nc1ccc(OCc3ccccc3)c(c1)COCCCCNC2=O [Example 118, 1^2-amino-4^4-(benzyloxy)-6-oxa-3,11-diaza-2(4,2)-pyrimidina-1(1,4),4(1,3)-dibenzenacyclododecaphan-12-one] | 5.00 to 6.00 | 5.00 to 6.00 | 7.00 to 7.96 | < 5.00
